Patent US6673746B1, “Virulence enhancement of bioherbicides” (priority 1999, dated 2004)

Experiments:
Fusarium oxysporum = type: cell-based; details: 0.5 ml of 1000 :g/ml analog in well, minimal medium, 28° C.
Description: Mutant selection. The inhibitory effect of valine and valine analogs was tested against the selected Fusarium spp., using a well zone-diffusion assay on a minimal medium. Seven available valine analogs were tested. The gradient plates were prepared as follows: Minimal media was poured into Petri dishes, then a disk (diameter=10 mm) of the solidified medium was cut out (with number 5 cutter) from the center of the plate and filled with the sterile solution of an analog (0.5 ml of a 1000 :g/ml of analog in sterile distilled H2O). The solution was gradually applied to the well and the plates were allowed to dry and form a gradient under the hood for 24 hours. A Fusarium oxysporum microconidia suspension of 10^7 sp/ml was obtained by washing a 10-14 day fungal culture grown on minimal medium (with nitrate) with 10 ml of sterile H2O. Five hundred :1 of the spore suspension was thoroughly spread across the plate with a glass rod. These plates were then incubated at 28° C.

Papaver somniferum = assay: Amino acid toxicity test on plants, Papaver somniferum seedlings; type: in vivo; details: for reduction of fresh weight of P. somniferum seedlings: 1 mM; for inhibition of P. somniferum seedling growth compared with the other amino acids: in vivo; for reduction of fresh weight of P. somniferum seedlings vs control: 0.1 mM
Description: (§1) Amino Acid Toxicity Tests on Plants. Germinated seeds of Cannabis sativa, Papaver somniferum, and Nicotiana tobaccum were transferred to minimal medium (3% Sucrose (w/v), 1.7 g/l Yeast extract base without amino acids (Difco Laboratories, Detroit, Mich.), 16 g/l Ultrapure Agar (USB, Cleveland, Ohio)) supplemented with increasing concentrations of amino acids. Each amino acid was supplemented at eight concentrations (0 mM, 0.01 mM, 0.1 mM, 0.5 mM, 1 mM, 2 mM, 3 mM, 4 mM), and each treatment was replicated six times. Five pregerminated seeds were placed on each plate, per replication. Plates were incubated at ambient temperature with 12-hour diurnal period for two weeks. The fresh weight per seedling was calculated at the end of the experiment.

Cannabis sativa = type: in vivo
Description: as §1

Nicotiana tobaccum = assay: Amino acid toxicity test on plants, tobacco seedlings; type: in vivo; details: 0.1 mM on agar media
Description: as §1

`CCC(C)C(=O)C(=O)O` (racemic) [DL-α-keto-β-methyl valeric acid] was tested, and the “inhibitory effect on strains of F. oxysporum” value (“inhibitory effect on strains” for short) (Fusarium oxysporum) was “not inhibitory”.
With `CC[C@H](N)C(=O)O` [L-amino-n- butyric acid] the “inhibitory effect on strains” value (Fusarium oxysporum) was “not inhibitory”.
With `CC(C)[C@H](N)C(N)=O` [L-valine amide] the “inhibitory effect on strains” value (Fusarium oxysporum) was “not inhibitory”.
For `CC(C)[C@H](N)C(=O)NO` [L-valine hydroxamate], the “inhibitory effect on strains” value (Fusarium oxysporum) was “not inhibitory”.
`CC(C)[C@H](N)CO` [L-valinol] was tested, and the “inhibitory effect on strains” value (Fusarium oxysporum) was “not inhibitory”.
`CCC[C@H](N)C(=O)O` [Norvaline] was tested, and the “inhibitory effect on strains” value (Fusarium oxysporum) was “inhibitory”.
For `CC(C)(S)[C@@H](N)C(=O)O` [penicillamine], the “inhibitory effect on strains” value (Fusarium oxysporum) was “inhibitory”.
In the case of `N[C@@H](Cc1ccccc1)C(=O)O` [phenylalanine], the “reduction of fresh weight of P. somniferum seedlings” value (Papaver somniferum) is reported as 20%, the “inhibition of P. somniferum seedling growth compared with the other amino acids” value (Papaver somniferum) is reported as “less inhibitory” and the “reduction of fresh weight of C. sativa seedlings vs control” value (Cannabis sativa; 0.1 mM in minimal medium) is reported as 40-45%. The “reduction of fresh weight of tobacco seedlings vs control” value (Nicotiana tobaccum) was 20%.
For `N[C@@H](Cc1c[nH]c2ccccc12)C(=O)O` [tryptophan], the “reduction of fresh weight of P. somniferum seedlings” value (Papaver somniferum) was 20%, the “inhibition of P. somniferum seedling growth compared with the other amino acids” value (Papaver somniferum) was “less inhibitory” and the “reduction of fresh weight of tobacco seedlings vs control” value (Nicotiana tobaccum) was 20%.
With `N[C@@H](Cc1ccc(O)cc1)C(=O)O` [tyrosine] the “reduction of fresh weight of P. somniferum seedlings vs control” value (Papaver somniferum) was “about 40%”, the “reduction of fresh weight of C. sativa seedlings” value (Cannabis sativa; 1 mM in minimal medium) was 25-30% and the “inhibition of C. sativa seedlings compared with the other amino acids” value (Cannabis sativa; in vivo) was “less inhibitory than other amino acids tested”. The “reduction of fresh weight of tobacco seedlings vs control” value (Nicotiana tobaccum) was 50-60%.
In the case of `CC(C)[C@H](N)C(=O)O` [valine], the “reduction of fresh weight of P. somniferum seedlings vs control” value (Papaver somniferum) is reported as “about 60%”, the “reduction of fresh weight of C. sativa seedlings vs control” value (Cannabis sativa; 0.1 mM in minimal medium) is reported as 50% and the “fresh weight of C. sativa seedlings relative to control seedlings” value (Cannabis sativa; 0.1 mM in minimal medium, two weeks) is reported as “half of the control”. For the same compound, the “concentration at which inhibitory effects on growth of C. sativa seedlings start” value (Cannabis sativa; minimal media with nitrate) was 0.1 mM.
